# Source: ChEMBL document CHEMBL4665668, “Design and development of molecular hybrids of 2-pyridylpiperazine and 5-phenyl-1,3,4-oxadiazoles as potential multifunctional agents to treat Alzheimer's disease” (Eur J Med Chem, 2019)
# Active and inactive are the calls of the source. The rule behind the calls is not given here.
# How the values were obtained:
# Beta-secretase 1 = Beta-secretase 1 (Homo sapiens, UniProt P56817); assay: Inhibition of human BACE-1 using MOCA-SEV-NL-DAEFR-DNP-RR as substrate preincubated with substrate followed by enzyme addition by FRET assay
# Acetylcholinesterase [1] = molecular target: T1, Acetylcholinesterase (Homo sapiens, UniProt P22303); assay: Inhibition of human erythrocytes AChE using acetylthiocholine iodide as substrate preincubated for 10 mins followed by substrate addition by Ellman's method; assay type: tissue-based, Erythrocyte
# Cholinesterase = Cholinesterase (Homo sapiens, UniProt P06276); assay: Inhibition of human serum BChE using butyrylthiocholine iodide as substrate preincubated for 10 mins followed by substrate addition by Ellman's method; assay type: cell-free
# [2] = Permeability of the compound in PBS/EtOH buffer (7:3) at 25 ug/ml after 18 hrs by PAMPA-BBB assay
# Rattus norvegicus [3] = assay: Improvement in learning and spatial memory in icv infused amyloid beta (1 to 42)-induced rat model of Alzheimer's disease assessed as increase in number of platform crossing at 10 mg/kg, po administered daily for 7 days starting from 7 days post surgery and measured after 6 days by Morris water maze test; assay type: functional, organism-based; settings: time 13.0 day
# Rattus norvegicus [4] = assay: Cognitive enhancing effect in po dosed scopolamine-induced Wistar rat model of amnesia assessed as increase in spontaneous alteration pretreated for 7 days followed by scopolamine challenge and measured after 30 mins by Y-maze test; assay type: functional, organism-based; settings: dose mg/kg 2.5-10, time 7.0 day
# [5] = molecular target: Amyloid-beta precursor protein (Homo sapiens) (UniProt P05067); settings: dose microM 5-20, time 48.0 hrs
# Rattus norvegicus [6] = assay: Ex vivo inhibition of AChE in brain of scopolamine-induced Wistar rat model of amnesia at 5 to 10 mg/kg, po pretreated for 7 days followed by scopolamine challenge and measured after 30 mins using acetylthiocholine iodide as substrate by Ellman's method; assay type: functional, organism-based; settings: dose mg/kg 5-10, time 7.0 day
# [7] = molecular target: Amyloid-beta precursor protein (Homo sapiens) (UniProt P05067); assay: Inhibition of amyloid beta (1 to […]) (unknown origin) self-induced aggregation after 48 hrs by Thioflavin T based fluorometric assay; settings: dose microM 5-20, time 48.0 hrs
# [8] = Acute toxicity in po dosed Wistar rat assessed as maximum tolerated dose by OCED guideline method; assay type: organism-based; settings: in vivo
# Acetylcholinesterase [9] = molecular target: T1, Acetylcholinesterase; settings: dose microM 5-20, time 48.0 hrs
# SH-SY5Y = assay: Neuroprotective activity against amyloid beta (1 to 42)-induced oxidative stress in human SH-SY5Y cells assessed as effect on cell viability at 10 to 80 uM measured after 24 hrs by MTT assay (reference value: 61 %); assay type: functional; settings: dose microM 10-80
# [10] = Cmax in Wistar rat at 10 mg/kg, po measured up to 72 hrs by HPLC analysis; assay type: ADME, organism-based; design: route oral, time 72 hrs, dose 10 mg/kg; settings: in vivo
# [11] = Tmax in Wistar rat at 10 mg/kg, po measured up to 72 hrs by HPLC analysis; assay type: ADME, organism-based; settings: in vivo
# Acetylcholinesterase [12] = molecular target: T1, Acetylcholinesterase; assay: Mixed type inhibition of human erythrocytes AChE using varying levels of acetylthiocholine iodide substrate by Dixon plot analysis; assay type: tissue-based, Erythrocyte
# Rattus norvegicus [13] = assay: Cognitive enhancing effect in scopolamine-induced Wistar rat model of amnesia assessed as increase in spontaneous alteration at 5 to 10 mg/kg, po pretreated for 7 days followed by scopolamine challenge and measured after 30 mins by Y-maze test; assay type: functional, organism-based; settings: dose mg/kg 5-10, time 7.0 day
# [14] = AUC (0 to 24 hrs) in Wistar rat at 10 mg/kg, po measured up to 72 hrs by HPLC analysis; assay type: ADME, organism-based; design: route oral, dose 10 mg/kg, time 72 hrs; settings: in vivo
# Acetylcholinesterase [15] = molecular target: T1, Acetylcholinesterase; assay: Mixed type inhibition of human erythrocytes AChE assessed as decrease in Vmax using varying levels of acetylthiocholine iodide substrate by Lineweaver-Burk plot analysis; settings: Erythrocyte
# [16] = Half life in Wistar rat at 10 mg/kg, po measured up to 72 hrs by HPLC analysis; assay type: ADME, organism-based; settings: in vivo
# Acetylcholinesterase [17] = molecular target: T1, Acetylcholinesterase; assay: Mixed type inhibition of human erythrocytes AChE assessed as increase in Km using varying levels of acetylthiocholine iodide substrate by Lineweaver-Burk plot analysis; assay type: tissue-based; settings: Erythrocyte
# Rattus norvegicus [18] = assay: Improvement in learning and spatial memory in icv infused amyloid beta (1 to 42)-induced rat model of Alzheimer's disease assessed as reduction in escape latency at 10 mg/kg, po administered daily for 7 days starting from 7 days post surgery and measured daily for 5 days by Morris water maze test; assay type: functional, organism-based; settings: time 12.0 day
# [19] = molecular target: Amyloid-beta precursor protein (Homo sapiens) (UniProt P05067); assay: Inhibition of amyloid beta (unknown origin) self aggregation assessed as maximum peak height at 10 uM after 10 days by atomic force microscopy; settings: time 10.0 day
# [20] = MRT in Wistar rat at 10 mg/kg, po measured up to 72 hrs by HPLC analysis; assay type: ADME, organism-based; settings: in vivo
# Rattus norvegicus [21] = assay: Antioxidant activity in scopolamine-induced Wistar rat model of amnesia assessed as increase in SOD level at 2.5 to 10 mg/kg, po pretreated for 7 days followed by scopolamine challenge and measured after 30 mins […]; assay type: functional, organism-based; settings: dose mg/kg 2.5-10, time 7.0 day
# Rattus norvegicus [22] = assay: Antioxidant activity in scopolamine-induced Wistar rat model of amnesia assessed as decrease in MDA level at 2.5 to 10 mg/kg, po pretreated for 7 days followed by scopolamine challenge and measured after 30 mins […]; assay type: functional, organism-based; settings: dose mg/kg 2.5-10, time 7.0 day
# [23] = molecular target: Amyloid-beta precursor protein (Homo sapiens) (UniProt P05067); assay: Inhibition of amyloid beta (unknown origin) self aggregation assessed as roughness index at 10 uM after 10 days by atomic force microscopy; settings: time 10.0 day
# [24] = Acute toxicity in Wistar rat assessed as abnormal signs at 100 to 500 mg/kg, po measured up to 14 days by OCED guideline method; assay type: organism-based; settings: in vivo, 336 h, dose 100-500 mg/kg, time 14 day
# Rattus norvegicus [25] = assay: Cognitive enhancing effect in scopolamine-induced Wistar rat model of amnesia assessed as increase in spontaneous alteration at 10 mg/kg, po pretreated for 7 days followed by scopolamine challenge and measured after 30 mins by Y-maze test; assay type: functional, organism-based; settings: time 7.0 day
# Chain of Amyloid-beta precursor protein (Homo sapiens) (P05067 whole entry): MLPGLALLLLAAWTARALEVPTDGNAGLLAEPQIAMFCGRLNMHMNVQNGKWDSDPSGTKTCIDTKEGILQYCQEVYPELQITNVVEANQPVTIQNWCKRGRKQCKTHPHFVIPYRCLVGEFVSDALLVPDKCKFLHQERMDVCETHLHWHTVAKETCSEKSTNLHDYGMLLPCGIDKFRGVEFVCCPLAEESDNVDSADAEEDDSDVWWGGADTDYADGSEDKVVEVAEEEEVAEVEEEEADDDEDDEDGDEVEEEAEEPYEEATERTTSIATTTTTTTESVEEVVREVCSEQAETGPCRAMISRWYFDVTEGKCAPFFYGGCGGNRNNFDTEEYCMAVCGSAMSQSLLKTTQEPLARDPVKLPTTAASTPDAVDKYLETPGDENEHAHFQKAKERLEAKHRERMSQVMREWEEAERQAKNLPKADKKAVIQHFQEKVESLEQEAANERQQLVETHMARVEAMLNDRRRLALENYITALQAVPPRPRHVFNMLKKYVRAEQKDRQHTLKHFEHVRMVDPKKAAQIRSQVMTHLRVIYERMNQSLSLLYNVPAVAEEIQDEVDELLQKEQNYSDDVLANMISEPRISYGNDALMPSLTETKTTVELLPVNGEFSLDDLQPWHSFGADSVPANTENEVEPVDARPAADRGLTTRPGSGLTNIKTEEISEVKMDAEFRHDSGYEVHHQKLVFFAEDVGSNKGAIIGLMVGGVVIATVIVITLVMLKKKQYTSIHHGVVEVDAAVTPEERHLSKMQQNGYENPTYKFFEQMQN
# T1 sequence (P22303 whole entry): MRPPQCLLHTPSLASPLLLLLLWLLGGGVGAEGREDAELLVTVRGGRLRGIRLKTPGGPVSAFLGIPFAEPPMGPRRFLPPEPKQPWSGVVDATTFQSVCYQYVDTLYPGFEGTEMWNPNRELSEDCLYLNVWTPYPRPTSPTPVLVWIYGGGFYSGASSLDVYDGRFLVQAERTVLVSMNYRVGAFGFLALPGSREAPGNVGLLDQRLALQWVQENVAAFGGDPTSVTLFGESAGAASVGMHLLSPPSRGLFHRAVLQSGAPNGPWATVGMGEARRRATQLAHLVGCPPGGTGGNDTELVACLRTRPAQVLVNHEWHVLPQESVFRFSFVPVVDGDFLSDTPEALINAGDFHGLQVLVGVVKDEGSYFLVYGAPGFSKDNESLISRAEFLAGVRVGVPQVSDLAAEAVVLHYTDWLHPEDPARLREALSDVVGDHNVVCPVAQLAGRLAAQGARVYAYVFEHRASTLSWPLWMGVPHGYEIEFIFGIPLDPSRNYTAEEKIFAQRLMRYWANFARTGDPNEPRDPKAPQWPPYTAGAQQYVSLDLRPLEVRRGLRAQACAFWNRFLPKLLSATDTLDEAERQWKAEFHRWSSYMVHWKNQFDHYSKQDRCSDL
# Chain of Cholinesterase (P06276 whole entry): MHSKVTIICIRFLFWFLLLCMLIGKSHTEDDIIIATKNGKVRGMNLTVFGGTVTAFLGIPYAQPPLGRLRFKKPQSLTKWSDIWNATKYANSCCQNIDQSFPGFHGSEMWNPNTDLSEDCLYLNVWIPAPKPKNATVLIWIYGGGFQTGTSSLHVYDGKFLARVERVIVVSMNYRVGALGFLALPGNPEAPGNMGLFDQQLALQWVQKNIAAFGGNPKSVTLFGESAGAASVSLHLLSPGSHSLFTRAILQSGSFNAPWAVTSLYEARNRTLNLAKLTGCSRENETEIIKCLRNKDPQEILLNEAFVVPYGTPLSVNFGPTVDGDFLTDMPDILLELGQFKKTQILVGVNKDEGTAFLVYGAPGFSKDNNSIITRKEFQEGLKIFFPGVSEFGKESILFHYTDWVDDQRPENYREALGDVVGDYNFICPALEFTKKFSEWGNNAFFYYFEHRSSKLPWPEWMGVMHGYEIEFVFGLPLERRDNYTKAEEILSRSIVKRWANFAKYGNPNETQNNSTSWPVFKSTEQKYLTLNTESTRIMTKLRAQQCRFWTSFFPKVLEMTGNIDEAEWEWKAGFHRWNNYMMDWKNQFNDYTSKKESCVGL
# Chain of Beta-secretase 1 (P56817 whole entry): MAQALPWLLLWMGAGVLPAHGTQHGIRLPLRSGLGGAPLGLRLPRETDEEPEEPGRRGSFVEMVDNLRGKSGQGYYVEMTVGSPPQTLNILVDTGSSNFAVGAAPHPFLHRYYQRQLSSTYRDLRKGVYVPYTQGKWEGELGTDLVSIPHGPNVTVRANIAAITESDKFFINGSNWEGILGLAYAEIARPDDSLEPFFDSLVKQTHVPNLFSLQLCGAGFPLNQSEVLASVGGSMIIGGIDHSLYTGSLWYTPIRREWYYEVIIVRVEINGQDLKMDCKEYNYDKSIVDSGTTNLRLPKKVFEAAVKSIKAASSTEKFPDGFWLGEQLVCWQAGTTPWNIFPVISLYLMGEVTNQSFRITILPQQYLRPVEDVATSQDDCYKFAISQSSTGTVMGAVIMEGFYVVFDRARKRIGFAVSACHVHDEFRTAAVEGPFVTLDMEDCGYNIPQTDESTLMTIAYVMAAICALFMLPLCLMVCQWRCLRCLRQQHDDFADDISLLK
structure (smiles),measurement,setting,value
O=C(N/N=C/c1ccc(OC(F)(F)F)cc1)N1CCN(c2ccccn2)CC1,IC50,Beta-secretase 1,248 nM
same,IC50,Acetylcholinesterase [1],2910 nM
same,IC50,Cholinesterase,4.35 µM
COc1cccc(/C=N/NC(=O)N2CCN(c3ccccn3)CC2)c1OC,IC50,Beta-secretase 1,6820 nM
same,IC50,Acetylcholinesterase [1],> 10000 nM
same,IC50,Cholinesterase,> 10 µM
Fc1ccc(-c2nnc(N3CCN(c4ccccn4)CC3)o2)cc1,IC50,Beta-secretase 1,1480 nM
same,IC50,Acetylcholinesterase [1],136 nM
same,IC50,Cholinesterase,1.22 µM
FC(F)(F)Oc1ccc(-c2nnc(N3CCN(c4ccccn4)CC3)o2)cc1,IC50,Beta-secretase 1,822 nM
same,IC50,Acetylcholinesterase [1],89 nM
same,"Papp at 18 h, 25 ug/ml",[2],6.8 ×10⁻⁶ cm/s
same,IC50,Cholinesterase,1.96 µM
Fc1ccc(-c2nnc(N3CCN(c4ccccn4)CC3)o2)c(F)c1,Activity,Rattus norvegicus [3],Active
same,Activity,Rattus norvegicus [4],Dose-dependent effect
same,Flu intensity,[5],0.3
same,inhibition,Rattus norvegicus [6],Active
same,inhibition,[7],Active
same,MTD,[8],100 mg/kg
same,Flu intensity,Acetylcholinesterase [9],0.33
same,Activity,SH-SY5Y,69%
same,Cmax,[10],49.8 ng/mL
same,Tmax,[11],5.33 h
same,Ki,Acetylcholinesterase [12],30 nM
same,Activity,Rattus norvegicus [13],Active
same,AUC(0-t) at 72 h,[14],721 ng·h/mL
same,inhibition,Acetylcholinesterase [15],Active
same,half-life,[16],739 min
same,inhibition,Acetylcholinesterase [17],Active
same,Activity,Rattus norvegicus [18],Active
same,Activity,[19],44.2 nm
same,MRT,[20],18.4 h
same,Activity,Rattus norvegicus [21],Active
same,"Papp at 18 h, 25 ug/ml",[2],6.1 ×10⁻⁶ cm/s
same,IC50,Cholinesterase,0.787 µM
same,Activity,Rattus norvegicus [22],Active
same,Activity,[23],1.84 nm
same,Activity,[24],Non-Toxic
O=C(N/N=C/c1ccc(Br)cc1)N1CCN(c2ccccn2)CC1,IC50,Beta-secretase 1,296 nM
same,IC50,Acetylcholinesterase [1],489 nM
same,"Papp at 18 h, 25 ug/ml",[2],3.6 ×10⁻⁶ cm/s
same,IC50,Cholinesterase,1.88 µM
Oc1ccccc1-c1nnc(N2CCN(c3ccccn3)CC2)o1,IC50,Beta-secretase 1,2230 nM
same,IC50,Acetylcholinesterase [1],1230 nM
same,IC50,Cholinesterase,8.22 µM
Brc1ccc(-c2nnc(N3CCN(c4ccccn4)CC3)o2)cc1,Activity,Rattus norvegicus [4],Dose-dependent effect
same,IC50,Beta-secretase 1,126 nM
same,Flu intensity,[5],0.42
same,MTD,[8],100 mg/kg
same,Flu intensity,Acetylcholinesterase [9],0.6
same,Activity,SH-SY5Y,63%
same,IC50,Acetylcholinesterase [1],74 nM
same,"Papp at 18 h, 25 ug/ml",[2],5.9 ×10⁻⁶ cm/s
same,Activity,Rattus norvegicus [25],Active
same,IC50,Cholinesterase,0.846 µM
same,Activity,[24],Non-Toxic
O=C(N/N=C/c1ccc(O)cc1O)N1CCN(c2ccccn2)CC1,IC50,Beta-secretase 1,4640 nM
same,IC50,Acetylcholinesterase [1],4680 nM
same,IC50,Cholinesterase,4.82 µM
Oc1ccc(-c2nnc(N3CCN(c4ccccn4)CC3)o2)c(O)c1,IC50,Beta-secretase 1,382 nM
same,IC50,Acetylcholinesterase [1],1340 nM
same,IC50,Cholinesterase,3.29 µM
COc1cc(-c2nnc(N3CCN(c4ccccn4)CC3)o2)cc(OC)c1OC,IC50,Beta-secretase 1,3240 nM
same,IC50,Acetylcholinesterase [1],222 nM
same,IC50,Cholinesterase,3.64 µM
c1ccc(-c2nnc(N3CCN(c4ccccn4)CC3)o2)cc1,IC50,Beta-secretase 1,3220 nM
same,IC50,Acetylcholinesterase [1],341 nM
same,IC50,Cholinesterase,3.27 µM
O=C(N/N=C/c1ccc([N+](=O)[O-])cc1)N1CCN(c2ccccn2)CC1,IC50,Beta-secretase 1,2640 nM
same,IC50,Acetylcholinesterase [1],1160 nM
same,IC50,Cholinesterase,4.02 µM
Oc1ccc(-c2nnc(N3CCN(c4ccccn4)CC3)o2)cc1,IC50,Beta-secretase 1,1780 nM
same,IC50,Acetylcholinesterase [1],1180 nM
same,IC50,Cholinesterase,6.02 µM
O=C(N/N=C/c1ccc(F)cc1F)N1CCN(c2ccccn2)CC1,IC50,Beta-secretase 1,446 nM
same,IC50,Acetylcholinesterase [1],682 nM
same,"Papp at 18 h, 25 ug/ml",[2],4.1 ×10⁻⁶ cm/s
same,IC50,Cholinesterase,3.97 µM
Cc1cccc(-c2nnc(N3CCN(c4ccccn4)CC3)o2)c1,IC50,Beta-secretase 1,2640 nM
same,IC50,Acetylcholinesterase [1],5240 nM
same,IC50,Cholinesterase,> 10 µM
